The subject of test [1] is extirpated mouse lymph duct (efferent lymph duct of iliac lymph node). Nature of the test: Test for inhibition of spontaneous contraction of lymph duct (perfused extirpated mouse lymph duct, video microscope). Set-up: species or system DDY mice. The procedure:
The evaluation method of relaxation or contraction response is conducted based on a value (relative spontaneous contraction suppression) obtained by dividing the number of spontaneous contractions per minute observed after drug administration until returning to even spontaneous contractions by the average number of spontaneous contractions per minute before drug administration. For example, supposing that it takes 3 minutes to return to even spontaneous contractions after drug administration and that the contractions occur 9 times during that period, the value after drug administration is 3 times/minute. Therefore, if the frequency before drug administration is 15 times/minute, the suppression effect is represented as 20%, which is calculated by dividing 3 by 15 and standardizing the quotient as a percent.
Pentbarbital sodium (50 mg/kg) was intraperitoneally administered to DDY mice (male, 5 to 6 weeks old) so as to be anesthetized and sacrificed, and an efferent lymph duct of an iliac lymph node (with a maximum inner diameter of 300 μm) was extirpated. The extirpated lymph duct was preserved in a chilled Krebs solution (120 mM NaCl, 5.9 mM KCl, 2.5 mM CaCl2, 1.2 mM MgSO4, 1.2 mM NaH2PO4, 5.5 mM glucose, 25.0 mM NaHCO3) at 4° C.
The inner diameter of the perfused extirpated mouse lymph duct specimen, as obtained above, was measured using a video microscope system (FIG. 1). An internal pressure of 3 to 4 cm H2O was supplied to the specimen to induce spontaneous contraction.
Effects of PTHrP(1-34) on spontaneous contraction of the lymph duct were examined and compared with a control, in the presence of NO synthesis inhibitor (L-NAME, 3×10^−5 M), L-arginine (10^−3 M) as a substrate of […], glibenclamide 10^−6 M as an ATP-sensitive K^+ channel inhibitor, and PTHrP(7-34) as a PTH receptor antagonist.

Test [2] deals with extirpated human medullary arteriole. Nature of the test: Relaxation effects on an extirpated human medullary arteriole (perfused specimen). The settings on record: control 127 μm. As to the method:
Resistance vessel extirpated from femoral cancellous bone and the inside of femoral bone marrow during an artificial joint replacement surgery of a human (malum coxae) was used as a sample of human medullary arteriole. The extirpated femoral concellous bone and femoral bone marrow were preserved in a chilled Krebs solution (at 4° C. or lower), and thereafter used in the following in vitro experiment.
A perfused specimen from this sample was prepared in the same manner as the perfused specimen of the extirpated mouse miniature lymph duct in Example 1.
An image of the diameter of the specimen was captured through an object lens, a taking lens, and a CCD camera in the same manner as Example 2.
With respect to the perfused specimen as prepared above, relaxation effect of PTHrP(1-34)(10^−8M) in the presence of vasoconstricting norepinephrine (NE, 10^−6 M) was examined.

For test [3], the system named is extirpated rat medullary arteriole. Put plainly: Inner diameter changes of perfused medullary arteriole specimen of rat thigh bone. The arrangement: species or system Wistar rats. The procedure:
Wistar rats (male, 5 to 6 weeks old) were anesthetized with pentbarbital ([…] of intraperitoneal administration) and sacrificed. All the skin, muscle, and ligament attached to the thigh bones were removed so as to expose and extirpate the thigh bones. The extirpated thigh bones were preserved in Krebs solution (at approximately 4° C.) for approximately 30 minutes. Strength was applied along the long axis direction of the thigh bone using mosquito forceps so as to crack the thigh bone along the long axis. Then, the cracked thigh bone was place into a petri dish (containing Krebs solution at approximately 4° C.) which was coated with SILIGUARD. Under a stereoscopic microscope, the thigh bone was removed using microsurgical forceps (commercially available forceps that was further sharpened by a grinder) to expose the bone marrow.
Krebs solution (at approximately 4° C.) was filled into a 1 ml syringe (having a 27G needle attached thereto) and the inside of the bone marrow was washed with the Krebs solution so as to remove myeloid cells adhering to blood vessels.
As a result, a blood vessel network was observed (FIG. 8), and arterioles indicated by black wedge-shaped arrowheads were extirpated under a stereoscopic microscope using micro cusps and microsurgical forceps.
The extirpated medullary arteriole was fixed in an apparatus for preparing a perfused specimen (FIG. 1, vessel chamber 9), and a hydrostatic pressure was supplied thereto so as to wash and remove blood from the arteriole lumen. The inner pressure of the specimen was kept at 40 mmHg during the experiment and the exposed side of the specimen was continuously perfused (12 ml/min) with Krebs solution which was kept at 37° C. and pH of 7.4.
An image of the diameter of the specimen was captured through a object lens, a taking lens, and a CCD camera.

As for `COC(=O)[C@@H](N)CCCNC(=N)N[N+](=O)[O-]` [L-NAME, N^G-nitro L-arginine methyl ester], in test [1] (L-NAME 3×10^−5 M, PTHrP(1-34) 3×10^−9 M, FIG. 3B), the “effect on inhibition of spontaneous lymph duct contraction by PTHrP(1-34), typical response” value is “cancelled out”. In addition, the “effect on lymph duct relaxation by PTHrP(1-34), four measurements” value in test [1] (in the presence of L-NAME (3×10^−5 M), FIG. 4) was “significantly cancelled out”.
For the compound `N=C(N)NCCC[C@H](N)C(=O)O` [L-arginine], the “effect of simultaneous treatment with L-NAME on the cancellation effect, typical response” value in test [1] (L-arginine 10^−3 M with L-NAME 3×10^−5 M, PTHrP(1-34) 3×10^−9 M, FIG. 3C) is “suppressed the cancellation effect of L-NAME”. The “effect of simultaneous treatment with L-NAME on the cancellation effect, four measurements” value in test [1] (L-arginine (10^−3 M) with L-NAME (3×10^−5 M), FIG. 4) is given as “significantly suppressed the cancellation effect of L-NAME”.
Turning to `NC[C@H](O)c1ccc(O)c(O)c1` [NE, norepinephrine], the “inner diameter of perfused specimen in the presence of NE” value in test [2] (NE 10^−6 M, internal pressure 55 mmHg, FIG. 11(b)) is on record as 33 μm.
As for `COc1ccc(Cl)cc1C(=O)NCCc1ccc(S(=O)(=O)NC(=O)NC2CCCCC2)cc1` [glibenclamide], the “effect on lymph duct relaxation caused by PTHrP(1-34), typical response” value in test [1] (glibenclamide 10^−6 M, PTHrP(1-34) 3×10^−9 M, FIG. 5B) is reported as “cancelled out”. In addition, the “effect on lymph duct relaxation caused by PTHrP(1-34), four measurements” value in test [1] (glibenclamide (10^−6 M), FIG. 6) was “significantly cancelled out”.
With “PTHrP(1-34): peptide comprising a sequence of 1 to 34 amino acids relative to the amino acid sequences of the PTHrP”, the “inner diameter of perfused specimen after addition of PTHrP(1-34) in the presence of NE” value in test [2] (PTHrP(1-34) 10^−8 M with NE 10^−6 M, NE alone 33 μm, FIG. 11(c)) was found to be 121 μm. For the same compound, the “frequency of spontaneous contraction after drug administration” value in test [1] (3×10^−10 of PTHrP(1-34), 15 times/minute before drug administration, FIG. 2A) is given as 13 times/minute. For the same compound, in test [1] (PTHrP(1-34) 10^−9 M, 3×10^−9 M, in addition to dilation responses, FIG. 2A), the “effect on spontaneous contractions of the lymph duct at increased concentration” value is “stopped remarkably”. In test [1] (control without L-NAME and L-arginine, four measurements, FIG. 4), the “effect of increasing PTHrP(1-34) on lymph duct (relative spontaneous contraction frequency ratio)” value is “relaxed the lymph duct”. The “tachyphylaxis on repeated dose response” value in test [1] (same specimen washed for 1 hour, dose response re-examined, FIG. 2B) is “induced remarkable tachyphylaxis”. Also, the “dose dependence of dilation effect” value in test [3] (10^−10 to 10^−8 M, FIG. 10) is “dose dependent”. In addition, in test [3] (PTHrP(1-34) 10^−8 M, dilated from 66 μm, passive diameter 120 μm, internal pressure 40 mmHg, FIG. 9), the “inner diameter at maximum dilation (relaxation) after administration” value was 114 μm. Besides, the “dose at which dilation response was induced” value in test [3] (dose range 10^−10 to 10^−8 M, FIG. 10) is recorded as 10^−9 M.
Consider “PTHrP(7-34): peptide having a sequence comprising from 7 to 34 amino acids of PTHrP; PTH/PTHrP receptor antagonist”, for which, in test [1] (PTHrP(7-34) 10^−7 M, PTHrP(1-34) 10^−10 to 3×10^−9 M, FIG. 7), the “effect on lymph duct relaxation by PTHrP(1-34), four individual examples” value is listed as “significantly cancelled out”.
